Columns and labels:
Human COX-2 = target: T1, Human COX-2 (Homo sapiens, UniProt P35354); experiment: Evaluation of COX-2 activity in vitro (recombinant enzyme, PGE2 ELISA); format: biochemical; details: 10 μM arachidonic acid; 10-20 minutes pre-incubation; pH 8.0
T1 construct: A 2.0 kb fragment containing the coding region of either human or murine COX-1 or human or murine COX-2; made in house; host or cells: SF9 insect cells (recombinant baculovirus, pVL1393); CHAPS-solubilized membranes
T1 sequence (P35354 18-604): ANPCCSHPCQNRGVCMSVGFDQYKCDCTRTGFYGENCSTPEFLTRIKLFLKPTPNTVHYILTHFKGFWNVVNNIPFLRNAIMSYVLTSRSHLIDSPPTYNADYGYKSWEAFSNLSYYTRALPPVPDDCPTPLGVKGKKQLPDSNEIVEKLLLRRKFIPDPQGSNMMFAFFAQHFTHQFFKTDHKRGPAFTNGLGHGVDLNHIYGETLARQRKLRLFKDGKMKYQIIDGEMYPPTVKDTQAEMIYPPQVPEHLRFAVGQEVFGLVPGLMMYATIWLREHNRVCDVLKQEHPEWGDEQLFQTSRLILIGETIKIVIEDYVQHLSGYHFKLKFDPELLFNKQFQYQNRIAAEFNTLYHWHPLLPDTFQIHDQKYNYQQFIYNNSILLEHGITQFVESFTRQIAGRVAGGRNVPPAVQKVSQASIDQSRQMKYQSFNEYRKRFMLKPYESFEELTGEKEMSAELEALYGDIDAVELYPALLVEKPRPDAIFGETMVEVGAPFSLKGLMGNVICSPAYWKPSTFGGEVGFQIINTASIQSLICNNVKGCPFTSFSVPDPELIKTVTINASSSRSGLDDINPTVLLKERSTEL
Description: The COX-2 inhibition activity of the compounds of this invention illustrated in the Examples was determined by the following methods.
(§1) a. Preparation of recombinant COX baculoviruses
(§2) A 2.0 kb fragment containing the coding region of either human or murine COX-1 or human or murine COX-2 was cloned into a BamH1 site of the baculovirus transfer vector pVL1393 (Invitrogen) to generate the baculovirus transfer vectors for COX-1 and COx-2 in a manner similar to the method of D. R. O'Reilly et al (Baculovirus Expression Vectors: A Laboratory Manual (1992)). Recombinant baculoviruses were isolated by transfecting 4 μg of baculovirus transfer vector DNA into SF9 insect cells (2>10e8) along with 200 ng of linearized baculovirus plasmid DNA by the calcium phosphate method. See M. D. Summers and G. E. Smith, A Manual of Methods for Baculovirus Vectors and Insect Cell Culture Procedures, Texas Agric. Exp. Station Bull. 1555 (1987). Recombinant viruses were purified by three rounds of plaque purification and high titer (10E7-10E8 pfu/ml) stocks of virus were prepared. For large scale production, SF9 insect cells were infected in 10 liter fermentors (0.5×10^6 /ml) with the recombinant baculovirus stock such that the multiplicity of infection was 0.1. After 72 hours the cells were centrifuged and the cell pellet homogenized in Tris/Sucrose (50 mM: 25%, pH 8.0) containing 1% 3-[(3-cholamidopropyl)dimethylammoniol]-1-propanesulfonate (CHAPS). The homogenate was centrifuged at 10,000×G for 30 minutes, and the resultant supernatant was stored at -80° C. before being assayed for Cox activity.
(§3) COX activity was assayed as PGE2 formed/μg protein/time using an ELISA to detect the prostaglandin released. CHAPS-solubilized insect cell membranes containing the appropriate COX enzyme were incubated in a potassium phosphate buffer (50 mM, pH 8.0) containing epinephrine, phenol, and heme with the addition of arachidonic acid (10 μM). Compounds were pre-incubated with the enzyme for 10-20 minutes prior to the addition of arachidonic acid. Any reaction between the arachidonic acid and the enzyme was stopped after ten minutes at 37° C./room temperature by transferring 40 μl of reaction mix into 160 μl ELISA buffer and 25 μM indomethacin. The PGE2 formed was measured by standard ELISA technology (Cayman Chemical).

Human COX-1 = target: T2, Human COX-1 (Homo sapiens, UniProt P23219); experiment: Evaluation of COX-1 activity in vitro (recombinant enzyme, PGE2 ELISA); format: biochemical; details: 10 μM arachidonic acid; 10-20 minutes pre-incubation; pH 8.0
T2 construct: A 2.0 kb fragment containing the coding region of either human or murine COX-1 or human or murine COX-2; made in house; host or cells: SF9 insect cells (recombinant baculovirus, pVL1393); CHAPS-solubilized membranes
Excerpt: Evaluation of COX-1 and COX-2 activity in vitro
as §1, §2
b. Assay for COX-1 and COX-2 activity:
as §3

[1] = tested on: hyperalgesic foot withdrawal (rat carrageenan); experiment: Rat Carrageenan-induced Analgesia Test; format: in vivo, Male Sprague-Dawley rats; details: @ 30 mg/kg body weight; oral; 3 hours after carrageenan
Description: Rat Carrageenan-induced Analgesia Test
Male Sprague-Dawley rats were treated as previously described for the Carrageenan Foot Pad Edema test. Three hours after the injection of the carrageenan, the rats were placed in a special plexiglass container with a transparent floor having a high intensity lamp as a radiant heat source, positionable under the floor. After an initial twenty minute period, thermal stimulation was begun on either the injected foot or on the contralateral uninjected foot. A photoelectric cell turned off the lamp and timer when light was interrupted by paw withdrawal. The time until the rat withdraws its foot was then measured. The withdrawal latency in seconds was determined for the control and drug-treated groups, and percent inhibition of the hyperalgesic foot withdrawal determined.

[2] = tested on: carrageenan foot edema (rat paw); experiment: Rat Carrageenan Foot Pad Edema Test; format: in vivo, Male Sprague-Dawley rats; details: @ 30 mg/kg body weight; oral; 3 hours after carrageenan
Description: Rat Carrageenan Foot Pad Edema Test
Male Sprague-Dawley rats were selected in each group so that the average body weight was as close as possible. Rats were fasted with free access to water for over sixteen hours prior to the test. […] One hour later a subplantar injection of 0.1 mL of 1% solution of carrageenan/sterile 0.9% saline was administered and the volume of the injected foot was measured with a displacement plethysmometer connected to a pressure transducer with a digital indicator. Three hours after the injection of the carrageenan, the volume of the foot was again measured.

T2 sequence (P23219 24-599): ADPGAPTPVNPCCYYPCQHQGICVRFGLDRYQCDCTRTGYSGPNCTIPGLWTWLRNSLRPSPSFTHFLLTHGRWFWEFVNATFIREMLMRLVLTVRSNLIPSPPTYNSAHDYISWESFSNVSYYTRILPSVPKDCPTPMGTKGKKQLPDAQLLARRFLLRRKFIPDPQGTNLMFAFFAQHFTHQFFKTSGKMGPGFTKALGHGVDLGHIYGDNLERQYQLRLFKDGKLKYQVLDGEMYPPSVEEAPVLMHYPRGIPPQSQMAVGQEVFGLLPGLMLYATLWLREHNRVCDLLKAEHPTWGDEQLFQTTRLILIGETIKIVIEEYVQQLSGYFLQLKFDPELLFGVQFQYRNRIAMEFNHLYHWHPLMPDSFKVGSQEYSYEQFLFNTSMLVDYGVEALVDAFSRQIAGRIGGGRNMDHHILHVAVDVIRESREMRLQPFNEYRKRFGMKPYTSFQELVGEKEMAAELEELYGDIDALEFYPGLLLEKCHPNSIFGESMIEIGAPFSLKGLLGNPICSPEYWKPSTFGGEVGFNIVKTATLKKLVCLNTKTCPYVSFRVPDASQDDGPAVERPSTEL

Compound	IC50 (Human COX-2)	IC50 (Human COX-1)	ANALGESIA % Inhibition [1]	RAT PAW EDEMA % Inhibition [2]
NS(=O)(=O)c1ccc(-n2nc(C(F)F)c3c2-c2ccc(F)cc2CS3)cc1 [Example 31, 4-[3-(difluoromethyl)-1,5-dihydro-7-fluoro-[2]benzothiopyrano[4,3-c]pyrazol-1-yl]benzenesulfonamide]	< 0.1 µM	0.2 µM	–	–
N#Cc1nn(-c2ccc(S(N)(=O)=O)cc2)c2c1SCc1cc(F)ccc1-2 [Example 35]	0.1 µM	0.8 µM	–	–
Cc1ccc2c(c1)COc1c(C(F)F)nn(-c3ccc(S(N)(=O)=O)cc3)c1-2 [Example 30, 4-[3-(difluoromethyl)-1,5-dihydro-7-methyl[2]benzopyrano[4,3-c]pyrazol-1-yl]benzenesulfonamide]	< 0.1 µM	10.7 µM	–	–
NS(=O)(=O)c1ccc(-n2nc(C(F)F)c3c2-c2ccc(Cl)cc2CS3)cc1 [Example 25, 4-[7-chloro-3-(difluoromethyl)-1,5-dihydro-[2]benzothiopyrano[4,3-c]pyrazol-1-yl]benzenesulfonamide]	< 0.1 µM	1.5 µM	–	–
NS(=O)(=O)c1ccc(-n2nc(C(F)(F)F)c3c2-c2cc(Cl)sc2CS3)cc1 [Example 21, 4-[7-chloro-1,5-dihydro-3-trifluoromethylthieno[3',2':4,5]thiopyrano[3,2-c]pyrazol-1-yl]benzenesulfonamide]	–	–	14%	–
Cc1ccc2c(c1)CSc1c(C(F)F)nn(-c3ccc(S(N)(=O)=O)cc3)c1-2 [Example 24, 4-[3-(difluoromethyl)-1,5-Dihydro-7-methyl-[2]benzothiopyrano[4,3-c]pyrazol-1-yl]benzenesulfonamide]	< 0.1 µM	1.2 µM	–	–
NS(=O)(=O)c1ccc(-n2nc(C(F)(F)F)c3c2-c2ccccc2SC3)cc1 [Example 7, 4-[1,4-dihydro-3-(trifluoromethyl)-[1]benzothiopyrano[4,3-c]pyrazol-1-yl]benzenesulfonamide]	–	9.7 µM	–	–
COc1ccc2c(c1F)CSc1c(C(F)(F)F)nn(-c3ccc(S(N)(=O)=O)cc3)c1-2 [Example 1, 4-[6-fluoro-1,5-dihydro-7-methoxy-3-(trifluoromethyl)-[2]benzothiopyrano[4,3-c]pyrazol-1-yl]benzenesulfonamide]	–	–	35%	43%
CN(C)C=NS(=O)(=O)c1ccc(-n2nc(C#N)c3c2-c2ccc(F)cc2CS3)cc1 [Example 34, 4-(3-cyano-1,5-dihydro-7-fluoro-[2]benzothiopyrano[4,3-c]pyrazol-1-yl) -N-[(dimethylamino)methylene]-benzenesulfonamide]	4.2 µM	> 100 µM	–	–
Cc1ccc2c(c1)COc1c(C(F)(F)F)nn(-c3ccc(S(N)(=O)=O)cc3)c1-2 [Example 28, 4-[1,5-dihydro-7-methyl-3-(trifluoromethyl)-[2]benzopyrano[4,3-c]pyrazol-1-yl]benzenesulfonamide]	< 0.1 µM	> 100 µM	–	–
NS(=O)(=O)c1ccc(-n2nc(CO)c3c2-c2ccc(F)cc2CS3)cc1 [Example 36]	1.7 µM	6.7 µM	–	–
NS(=O)(=O)c1ccc(-n2nc(C(F)(F)F)c3c2-c2ccc4c(c2CS3)OCO4)cc1 [Example 33]	< 0.1 µM	< 0.1 µM	–	–
NS(=O)(=O)c1ccc(-n2nc(C(F)(F)F)c3c2-c2ccccc2OC3)cc1 [Example 3, 4-[1,4-dihydro-3-(trifluoromethyl)-[1]benzopyrano[4,3-c]pyrazol-1-yl]benzenesulfonamide]	–	7.1 µM	–	–
COc1ccc2c(c1)COc1c(C(F)(F)F)nn(-c3ccc(S(N)(=O)=O)cc3)c1-2 [Example 26, 4-[1,5-dihydro-7-methoxy-3-(trifluoromethyl)-[2]benzopyrano[4,3-c]pyrazol-1-yl]benzenesulfonamide]	< 0.1 µM	0.2 µM	–	–
NS(=O)(=O)c1ccc(-n2nc(C(F)(F)F)c3c2-c2ccccc2CS3)cc1 [Example 16, 4-[1,5-dihydro-3-(trifluoromethyl)-[2]benzothiopyrano[4 3-c]pyrazol-1-yl]benzenesulfonamide]	–	0.4 µM	–	–
CS(=O)(=O)c1ccc(-n2nc(C(F)(F)F)c3c2-c2ccc(F)cc2CS3)cc1 [Example 32, 1,5-dihydro-7-fluoro-1-[(4-methylsulfonyl)phenyl]-3-(trifluoromethyl)-[2]benzothiopyrano[4,3,c]pyrazole]	0.2 µM	8.9 µM	–	–
COc1cc2c(c(OC)c1OC)-c1c(c(C(F)(F)F)nn1-c1ccc(S(N)(=O)=O)cc1)OC2 [Example 27, 4-[1,5-dihydro-7.8,9-trimethoxy-3-(trifluoromethyl)-[2]benzopyrano[4,3-c]pyrazol-1-yl]benzenesulfonamide]	59.9 µM	> 100 µM	–	–
COc1c(F)cc2c(c1F)CSc1c(C(F)(F)F)nn(-c3ccc(S(N)(=O)=O)cc3)c1-2 [Example 29, 4-[6,8-difluoro-1,5-dihydro-7-methoxy-3-(trifluoromethyl)[2]benzothiopyrano[4,3-c]pyrazol-1-yl]benzenesulfonamide]	0.3 µM	> 100 µM	–	–
